Measured values as given in ChEMBL document CHEMBL1124314, “Development of phosphonate derivatives of gadolinium chelates for NMR imaging of calcified soft tissues” (J Med Chem, 1989).
Values belong to the molecule of their own block, whether it stands above or below them.

Columns and labels:
[1] = organism: Rattus norvegicus; assay: Biodistribution in normal rat heart in the presence of 0.005 M Gd/0.01 M lig at 2 hr; type: ADME, organism-based; conditions: in vivo
[2] = Ratio of uptake of [GD] in bone 1 hr post injection with 0.01 to that of blood; type: functional
[3] = Ratio of uptake of [GD] in bone 1 hr post injection with 0.002 to that of blood; type: functional
[4] = organism: Rattus norvegicus; assay: Biodistribution in normal rat spleen in the presence of NAC Gd 0.01 M lig at 2 hr; type: ADME, organism-based; conditions: in vivo
[5] = Ratio of uptake of [GD] in bone 1 hr post injection with 0.002 to that of muscle; type: functional
[6] = organism: Rattus norvegicus; assay: Uptake of [GD] in bone 1 hr post injection with NCA GD dose; type: functional, Bone element
[7] = Ratio of uptake of [GD] in bone 1 hr post injection with 0.01 to that of muscle; type: functional
[8] = Ratio of uptake of [GD] in bone 1 hr post injection with 0.025 to that of muscle; type: functional
[9] = organism: Rattus norvegicus; assay: Biodistribution in normal rat liver in the presence of NAC Gd 0.01 M lig at 2 hr; type: ADME, organism-based; conditions: in vivo
[10] = organism: Rattus norvegicus; assay: Uptake of [GD] in bone 1 h post injection with 0.01 of the compound; type: functional, Bone element
[11] = Ratio of uptake of [GD] in bone 1 hr post injection with 0.025 to that of blood; type: functional
[12] = organism: Rattus norvegicus; assay: Biodistribution in normal rat spleen in the presence of 0.01 M Gd/0.05 M lig; type: ADME, organism-based; conditions: in vivo
[13] = organism: Rattus norvegicus; assay: Uptake of [GD] in bone 1 hr post injection with 0.002 of the compound; type: functional, Bone element
[14] = organism: Rattus norvegicus; assay: Biodistribution in normal rat lung in the presence of NAC Gd 0.01 M lig at 2 hr; type: ADME, organism-based; conditions: in vivo
[15] = organism: Rattus norvegicus; assay: Biodistribution in normal rat spleen in the presence of 0.005 M Gd/0.01 M lig at 2 hr; type: ADME, organism-based; conditions: in vivo
[16] = organism: Rattus norvegicus; assay: Biodistribution in normal rat muscle in the presence of NAC Gd 0.01 M lig at 2 hr; type: ADME, organism-based, Muscle tissue; conditions: in vivo
[17] = organism: Rattus norvegicus; assay: Biodistribution in normal rat bone in the presence of NAC Gd 0.01 M lig at 2 hr; type: ADME, organism-based, Bone element; conditions: in vivo
[18] = organism: Rattus norvegicus; assay: Biodistribution in normal rat lung in the presence of 0.005 M Gd/0.01 M lig at 2 hr; type: ADME, organism-based; conditions: in vivo
[19] = organism: Rattus norvegicus; assay: Biodistribution in normal rat kidney in the presence of 0.005 M Gd/0.01 M lig at 2 hr; type: ADME, organism-based; conditions: in vivo
[20] = Ratio of uptake of [GD] in bone 1 hr post injection with NCA GD dose to that of blood; type: functional
[21] = organism: Rattus norvegicus; assay: Biodistribution in normal rat heart in the presence of 0.01 M Gd/0.05 M lig; type: ADME, organism-based; conditions: in vivo
[22] = organism: Rattus norvegicus; assay: Biodistribution in normal rat liver in the presence of 0.005 M Gd/0.01 M lig at 2 hr; type: ADME, organism-based; conditions: in vivo
[23] = organism: Rattus norvegicus; assay: Biodistribution in normal rat bone in the presence of 0.01 M Gd/0.05 M lig; type: ADME, organism-based, Bone element; conditions: in vivo
[24] = Uptake of [GD] in bone 1 hr post injection with NCA GD dose to that of muscle; type: functional, Muscle tissue
[25] = organism: Rattus norvegicus; assay: Biodistribution in normal rat kidney in the presence of NAC Gd 0.01 M lig at 2 hr; type: ADME, organism-based; conditions: in vivo
[26] = organism: Rattus norvegicus; assay: Biodistribution in normal rat muscle in the presence of 0.005 M Gd/0.01 M lig at 2 hr; type: ADME, organism-based, Muscle tissue; conditions: in vivo
[27] = organism: Rattus norvegicus; assay: Biodistribution in normal rat kidney in the presence of 0.01 M Gd/0.05 M lig; type: ADME, organism-based; conditions: in vivo
[28] = organism: Rattus norvegicus; assay: Biodistribution in normal rat bone in the presence of 0.005 M Gd/0.01 M lig at 2 hr; type: ADME, organism-based, Bone element; conditions: in vivo
[29] = organism: Rattus norvegicus; assay: Biodistribution in normal rat lung in the presence of 0.01 M Gd/0.05 M lig; type: ADME, organism-based; conditions: in vivo
[30] = organism: Rattus norvegicus; assay: Biodistribution in normal rat heart in the presence of NAC Gd 0.01 M lig at 2 hr; type: ADME, organism-based; conditions: in vivo
[31] = organism: Rattus norvegicus; assay: Uptake of [GD] in bone 1 hr post injection with 0.025 of the compound; type: functional, Bone element
[32] = organism: Rattus norvegicus; assay: Biodistribution in normal rat blood in the presence of 0.01 M Gd/0.05 M lig; type: ADME, organism-based; conditions: in vivo
[33] = organism: Rattus norvegicus; assay: Biodistribution in normal rat blood in the presence of 0.005 M Gd/0.01 M lig at 2 hr; type: ADME, organism-based; conditions: in vivo
[34] = organism: Rattus norvegicus; assay: Biodistribution in normal rat liver in the presence of 0.01 M Gd/0.05 M lig; type: ADME, organism-based; conditions: in vivo
[35] = organism: Rattus norvegicus; assay: Biodistribution in normal rat blood in the presence of NAC Gd 0.01 M lig at 2 hr; type: ADME, organism-based; conditions: in vivo
[36] = organism: Rattus norvegicus; assay: Biodistribution in normal rat muscle in the presence of 0.01 M Gd/0.05 M lig; type: ADME, organism-based, Muscle tissue; conditions: in vivo
[37] = test system: Rattus norvegicus; assay: Biodistribution in rat s. intestine in the presence of 50 Gd/kg at 6 hr; type: ADME, organism-based; conditions: in vivo
[38] = organism: Rattus norvegicus; assay: Biodistribution in rat bone in the presence of NCA Gd/0.01 M lip; type: ADME, organism-based, Bone element; conditions: in vivo
[39] = test system: Rattus norvegicus; assay: Biodistribution in rat liver by in the presence 50 Gd/kg at 15 min; type: ADME, organism-based; conditions: in vivo, 0.25 h
[40] = test system: Rattus norvegicus; assay: Biodistribution in rat l. intestine in the presence of 50 Gd/kg at 2 hr; type: ADME, organism-based; conditions: in vivo
[41] = test system: Rattus norvegicus; assay: Biodistribution in rat stomach in the presence of 50 Gd/kg at 15 min; type: ADME, organism-based; conditions: in vivo, 0.25 h
[42] = test system: Rattus norvegicus; assay: Biodistribution in rat spleen in the presence of 50 Gd/kg at 2 hr; type: ADME, organism-based; conditions: in vivo
[43] = organism: Rattus norvegicus; assay: Biodistribution in rat s. intestine in the presence of NCA (No carrier added); type: ADME, organism-based; conditions: in vivo
[44] = organism: Rattus norvegicus; assay: Biodistribution in rat blood in the presence of 0.05 M Gd/0.15 M lig; type: ADME, organism-based; conditions: in vivo
[45] = organism: Rattus norvegicus; assay: Biodistribution in rat muscle in the presence of 0.05 M Gd/0.15 M lig; type: ADME, organism-based, Muscle tissue; conditions: in vivo
[46] = organism: Rattus norvegicus; assay: Biodistribution in rat kidney in the presence of NCA Gd/0.01 M lip; type: ADME, organism-based; conditions: in vivo
[47] = test system: Rattus norvegicus; assay: Biodistribution in rat blood in the presence of 50 Gd/kg at 2 hr; type: ADME, organism-based; conditions: in vivo
[48] = test system: Rattus norvegicus; assay: Biodistribution in rat blood in the presence of 50 Gd/kg at 6 hr; type: ADME, organism-based; conditions: in vivo
[49] = test system: Rattus norvegicus; assay: Biodistribution in rat liver in the presence of 50 Gd/kg at 2 hr; type: ADME, organism-based; conditions: in vivo
[50] = organism: Rattus norvegicus; assay: Biodistribution in rat bone in the presence of 0.05 M Gd/0.15 M lig; type: ADME, organism-based, Bone element; conditions: in vivo
[51] = test system: Rattus norvegicus; assay: Biodistribution in rat stomach in the presence of 50 Gd/kg at 2 hr; type: ADME, organism-based; conditions: in vivo
[52] = organism: Rattus norvegicus; assay: Biodistribution in rat spleen in the presence of NCA Gd/0.01 M lip; type: ADME, organism-based; conditions: in vivo
[53] = test system: Rattus norvegicus; assay: Biodistribution in rat spleen in the presence of 50 Gd/kg at 15 min; type: ADME, organism-based; conditions: in vivo, 0.25 h
[54] = organism: Rattus norvegicus; assay: Biodistribution in rat liver in the presence of NCA Gd/0.01 M lip; type: ADME, organism-based; conditions: in vivo
[55] = organism: Rattus norvegicus; assay: Biodistribution in rat l. intestine in the presence of 0.01 M carrier at 1 hr; type: ADME, organism-based; conditions: in vivo
[56] = test system: Rattus norvegicus; assay: Biodistribution in rat liver in the presence of 50 Gd/kg at 6 hr; type: ADME, organism-based; conditions: in vivo
[57] = organism: Rattus norvegicus; assay: Biodistribution in rat heart in the presence of 0.05 M Gd/0.15 M lig; type: ADME, organism-based; conditions: in vivo
[58] = organism: Rattus norvegicus; assay: Biodistribution in rat kidney in the presence of 0.05 M Gd/0.15 M lig; type: ADME, organism-based; conditions: in vivo
[59] = organism: Rattus norvegicus; assay: Biodistribution in rat heart in the presence of NCA Gd/0.01 M lip; type: ADME, organism-based; conditions: in vivo
[60] = test system: Rattus norvegicus; assay: Biodistribution in rat s. intestine in the presence of 50 Gd/kg at 2 hr; type: ADME, organism-based; conditions: in vivo
[61] = organism: Rattus norvegicus; assay: Biodistribution in rat liver by in the presence of 0.05 M Gd/0.15 M lig; type: ADME, organism-based; conditions: in vivo
[62] = organism: Rattus norvegicus; assay: Biodistribution in rat muscle in the presence of NCA Gd/0.01 M lip; type: ADME, organism-based, Muscle tissue; conditions: in vivo
[63] = organism: Rattus norvegicus; assay: Biodistribution in rat blood in the presence of NCA Gd/0.01 M lip; type: ADME, organism-based; conditions: in vivo
[64] = test system: Rattus norvegicus; assay: Biodistribution in rat blood in the presence of 50 Gd/kg at 15 min; type: ADME, organism-based; conditions: in vivo, 0.25 h
[65] = test system: Rattus norvegicus; assay: Biodistribution in rat spleen in the presence of 50 Gd/kg at 6 hr; type: ADME, organism-based; conditions: in vivo
[66] = test system: Rattus norvegicus; assay: Biodistribution in rat l. intestine in the presence of 50 Gd/kg at 6 hr; type: ADME, organism-based; conditions: in vivo

- ID/organ [1]: 0.04%
- ID/organ [4]: 0.004%
- ID/organ [9]: 0.22%
- ID/organ [12]: 0.009%
- ID/organ [14]: 0.02%
- ID/organ [15]: 0.02%
- ID/organ [16]: 0.3%
- ID/organ [17]: 47%
- ID/organ [18]: 0.1%
- ID/organ [19]: 0.4%
- ID/organ [21]: 0.13%
- ID/organ [22]: 1.6%
- ID/organ [23]: 35%
- ID/organ [25]: 0.29%
- ID/organ [26]: 2.4%
- ID/organ [27]: 0.38%
- ID/organ [28]: 42.9%
- ID/organ [29]: 0.09%
- ID/organ [30]: 0.004%
- ID/organ [32]: 0.7%
- ID/organ [33]: 1.7%
- ID/organ [34]: 0.5%
- ID/organ [35]: 0.045%
- ID/organ [36]: 2%
SMILES: O=P(O)(O)C(N(CCN(C(P(=O)(O)O)P(=O)(O)O)C(P(=O)(O)O)P(=O)(O)O)C(P(=O)(O)O)P(=O)(O)O)P(=O)(O)O
- Ratio [2]: 37.3
- Ratio [3]: 73.3
- Ratio [5]: 43.5
- ID [6]: 54.8%
- Ratio [7]: 27.7
- Ratio [8]: 12.4
- ID [10]: 50.1%
- Ratio [11]: 20.4
- ID [13]: 53.1%
- Ratio [20]: 91.8
- Ratio [24]: 51.2
- ID [31]: 35.4%

- ID/organ [37]: 0.675%
- ID/organ [38]: 6.91%
- ID/organ [39]: 34.2%
- ID/organ [40]: 0.334%
- ID/organ [41]: 0.221%
- ID/organ [42]: 12.5%
- ID/organ [43]: 0.86%
- ID/organ [44]: 0.319%
- ID/organ [45]: 0.124%
- ID/organ [46]: 0.339%
- ID/organ [47]: 0.26%
- ID/organ [48]: 0.217%
- ID/organ [49]: 74.3%
- ID/organ [50]: 1.18%
- ID/organ [51]: 0.178%
- ID/organ [52]: 2.67%
- ID/organ [53]: 11.2%
- ID/organ [54]: 67.3%
- ID/organ [55]: 0.138%
- ID/organ [56]: 80.2%
- ID/organ [57]: 0.059%
- ID/organ [58]: 0.447%
- ID/organ [59]: 0.099%
- ID/organ [60]: 1.03%
- ID/organ [61]: 73%
- ID/organ [62]: 2.38%
- ID/organ [63]: 2.62%
- ID/organ [64]: 23.4%
- ID/organ [65]: 8.12%
- ID/organ [66]: 0.293%
SMILES: CC(C(=O)O)C(C(=O)O)(P(=O)(O)O)P(=O)(O)O (stereo unspecified)
